Read-outs that look alike come from different tables or passages of the source.
Tests used:
[1] = molecular target: T1, human thioredoxin reductase (hTrxR) (Homo sapiens, UniProt Q16881); assay: Kinetic parameters of substrates with native hTrxR (placenta); type: biochemical; conditions: substrate of native hTrxR (placenta), 25° C., buffer A pH 7.25, 0.2 mM NADPH
T1 construct: U of native hTrxR; from tissue; host or cells: human placenta
T1 sequence (Q16881 151-649 limits assumed): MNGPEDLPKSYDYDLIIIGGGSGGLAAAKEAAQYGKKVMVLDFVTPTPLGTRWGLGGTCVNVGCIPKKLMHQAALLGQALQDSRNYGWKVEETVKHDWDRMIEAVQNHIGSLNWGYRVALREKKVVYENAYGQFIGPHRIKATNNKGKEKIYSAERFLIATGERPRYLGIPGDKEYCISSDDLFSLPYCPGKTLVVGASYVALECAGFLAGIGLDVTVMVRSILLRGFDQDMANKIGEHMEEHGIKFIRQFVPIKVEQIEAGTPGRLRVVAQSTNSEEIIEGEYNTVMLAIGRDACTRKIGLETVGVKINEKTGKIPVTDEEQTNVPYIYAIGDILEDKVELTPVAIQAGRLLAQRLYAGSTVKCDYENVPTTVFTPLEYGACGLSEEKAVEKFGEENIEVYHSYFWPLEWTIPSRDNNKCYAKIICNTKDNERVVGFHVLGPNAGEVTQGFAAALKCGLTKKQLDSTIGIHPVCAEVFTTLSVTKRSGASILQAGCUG
Method: The human thioredoxin reductase (hTrxR) is purified from placenta as specified in J. E. Oblong et al., Biochemistry, 1993, 32, 7271-7277.
The enzyme is added to a reaction mixture comprising 100 mM potassium phosphate, 2 mM EDTA, pH 7.4 and 3 mM DTNB; after the addition of 200 μM NADPH, the increase in the absorbence is measured at 412 nm and at 25° C. Using the DTNB test, one TrxR unit is defined as the NADPH-dependent production of […] of 5-thio-2-nitrobenzoate (ε412 nm=13.6 mM^−1.cm^−1). The TrxR concentrations are determined by measuring subunits containing FAD at 450 nm (ε=11.3 mM^−1.cm^−1).

[2] = molecular target: T2, trypanothione reductase from Trypanosoma cruzi (TcTR) (Trypanosoma cruzi, UniProt P28593); assay: Kinetic parameters of substrates with recombinant trypanothione reductase
Method: The TcTR concentration is determined by measuring the number of subunits containing FAD at 461 nm (ε=11.3 mM^−1×cm^−1); the enzymatic activity is tested as specified in (28). One TR unit corresponds to 1 μmol of T(S)2 reduced per minute at 25° C. in a buffer A (20 mM Hepes, pH 7.25 containing 1 mM EDTA and 0.15 M KCl).
The enzyme stock solutions used for the kinetic determinations are pure (verification in SDS-PAGE) and have a specific activity of 137 U/mg in the T(S)2 reduction test performed in the presence of 500 μM NADPH and 518 μM T(S)2 in a buffer A.
All the kinetic studies are carried out in the same buffer at 25° C., in the presence of 200 μM of NADPH.
All the tests were carried out at 25° C. in 20 mM HEPES, 1 Mm EDTA, 150 mM KCl, at pH 7.25 (buffer A) and in the presence of 0.2 mM NADPH.

[3] = molecular target: T2, trypanothione reductase from Trypanosoma cruzi (TcTR); design: made in house; host or cells: Escherichia coli SG5 carrying pIBITczTR; conditions: cited from earlier work
[4] = molecular target: T1, human thioredoxin reductase (hTrxR); conditions: substrate of native hTrxR (placenta), cited from earlier work; for Km: references [29], [38]
[5] = molecular target: T3, thioredoxin reductase from Plasmodium falciparum (PfTrxR) (Plasmodium falciparum, UniProt Q25861); conditions: cited from earlier work
T3 construct: made in house; host or cells: E. coli SG5 (glutathione reductase deficient)
T3 sequence (Q25861 1-541): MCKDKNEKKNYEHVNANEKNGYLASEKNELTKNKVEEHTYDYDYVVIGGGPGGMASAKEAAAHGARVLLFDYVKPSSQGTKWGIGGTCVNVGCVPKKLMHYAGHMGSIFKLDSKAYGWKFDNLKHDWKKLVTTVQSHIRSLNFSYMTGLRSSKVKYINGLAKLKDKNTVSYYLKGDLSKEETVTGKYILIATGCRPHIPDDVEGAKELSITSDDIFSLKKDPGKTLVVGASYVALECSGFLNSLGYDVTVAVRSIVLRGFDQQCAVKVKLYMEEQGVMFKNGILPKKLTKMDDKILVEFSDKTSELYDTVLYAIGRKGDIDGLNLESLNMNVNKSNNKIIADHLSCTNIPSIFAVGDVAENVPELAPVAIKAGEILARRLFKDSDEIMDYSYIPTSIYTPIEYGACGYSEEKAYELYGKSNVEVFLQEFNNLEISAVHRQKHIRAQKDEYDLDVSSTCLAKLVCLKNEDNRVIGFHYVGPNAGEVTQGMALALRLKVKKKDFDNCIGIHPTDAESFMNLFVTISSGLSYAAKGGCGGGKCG

[6] = molecular target: T4, Native hTrxR (lung adenocarcinoma cells) (Homo sapiens, UniProt Q16881); conditions: substrate of native hTrxR (lung adenocarcinoma cells); reference [22]; cited from earlier work
T4 construct: host or cells: human lung adenocarcinoma cells (endogenous enzyme, purified)
T4 sequence (Q16881 151-649 limits assumed): T1 sequence (Q16881 151-649 limits assumed)

[7] = molecular target: T3, thioredoxin reductase from Plasmodium falciparum (PfTrxR); assay: Kinetic parameters of substrates with recombinant PfTrxR; type: biochemical; conditions: substrate of recombinant PfTrxR; 25° C., buffer A pH 7.25, 0.2 mM NADPH
Method: […] Using the DTNB test, one TrxR unit is defined as the NADPH-dependent production of […] of 5-thio-2-nitrobenzoate (ε412 nm=13.6 mM^−1.cm^−1). The TrxR concentrations are determined by measuring subunits containing FAD at 450 nm (ε=11.3 mM^−1.cm^−1).

[8] = substrate of recombinant PfTrxR, reference [26]
[9] = substrate of recombinant TcTR, reference [1]

T2 sequence (P28593 whole entry): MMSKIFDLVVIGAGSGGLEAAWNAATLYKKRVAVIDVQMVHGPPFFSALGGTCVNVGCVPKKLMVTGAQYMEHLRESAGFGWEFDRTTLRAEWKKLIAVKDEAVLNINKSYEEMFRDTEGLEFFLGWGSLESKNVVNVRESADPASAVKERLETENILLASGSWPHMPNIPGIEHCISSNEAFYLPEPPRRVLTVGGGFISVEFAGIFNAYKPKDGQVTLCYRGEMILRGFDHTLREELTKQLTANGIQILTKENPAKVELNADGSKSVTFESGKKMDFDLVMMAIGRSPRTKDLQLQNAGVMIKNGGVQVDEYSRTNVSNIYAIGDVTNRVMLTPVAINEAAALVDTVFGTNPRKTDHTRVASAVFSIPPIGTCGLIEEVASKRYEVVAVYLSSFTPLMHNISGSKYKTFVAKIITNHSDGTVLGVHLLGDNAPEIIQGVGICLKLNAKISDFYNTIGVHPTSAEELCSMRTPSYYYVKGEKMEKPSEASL

CN(C)CCCNC(=O)c1cc(SSc2ccc([N+](=O)[O-])c(C(=O)NCCCN(C)C)c2)ccc1[N+](=O)[O-] [Compound 1]
Km [1]: 7 µM | reduction of Km compared with trypanothione disulphide ([2]; substrate for TR): 30%

O=C(O)c1cc(SSc2ccc([N+](=O)[O-])c(C(=O)O)c2)ccc1[N+](=O)[O-] [DTNB, 5,5′-dithiobis(2-nitrobenzoic) acid]
suitable as substrate (words spread over the Km, Kcat and Kcat/Km cells) ([3]; recombinant TcTR, reference [13]): Not | Kcat ([4]; reference [38]): 67 s⁻¹ | Km [4]: 400 µM | Km ([5]; substrate of PfTrxR, stated in text): ~1 mM | Kcat [5, 8]: 7 s⁻¹ | Km [5, 8]: 1.09 mM

N[C@@H](CCC(=O)N[C@H]1CSSC[C@H](NC(=O)CC[C@H](N)C(=O)O)C(=O)NCC(=O)NCCCNCCCCNC(=O)CNC1=O)C(=O)O [TS2, oxidized N^1, N^8-bis(glutathionyl)-spermidine]
Kcat [3, 9]: 240 s⁻¹ | Km [3, 9]: 45 µM

E. coli Trx: thioredoxin (Trx) of E. coli, substrate of thioredoxin reductase
Km [4]: 20 µM | Kcat [5, 8]: >5 s⁻¹ | Km [5, 8]: 0.066 mM | Kcat [6]: 5.6 s⁻¹ | Km [6]: 34 µM

CN1CCN(C(=O)c2cc(SSc3ccc([N+](=O)[O-])c(C(=O)N4CCN(C)CC4)c3)ccc2[N+](=O)[O-])CC1 [Compound 3]
Kcat [7]: 6 s⁻¹ | Kcat [1]: 38 s⁻¹ | Km ([1]; read-out: Km): 10 µM | suitable as substrate (words spread over the Km, Kcat and Kcat/Km cells) ([2]; recombinant TcTR, 25° C., buffer A, 0.2 mM NADPH): Not

— patent publication US20030175848A1, “Substituted dithiobisnitrobenzenes and their applications” (Institut Pasteur De Lille, priority 1998, published 2003)
